Experimental data from article PMC8397297 (ACS Chemical Neuroscience, 2021).

How the values were obtained:
[1] = molecular target: T1, mGAT1 (Mus musculus, UniProt P31648); test: [3H]GABA uptake assay in HEK-293 cells stably expressing mGAT1; format: cell-based; details: for IC50: [3H]GABA uptake, read-out: pIC50 ± SEM mGAT1 (converted); for remaining [3H]GABA uptake mGAT1: in the presence of 100 μM inhibitor
T1 construct: expressed in transfected cells; host or cells: HEK-293

[2] = molecular target: T2, mGAT2 (Mus musculus, UniProt P31651); test: [3H]GABA uptake assay in HEK-293 cells stably expressing mGAT2; format: cell-based; details: for IC50: [3H]GABA uptake, read-out: pIC50 ± SEM mGAT2 (converted); for remaining [3H]GABA uptake mGAT2: in the presence of 100 μM inhibitor
T2 construct: expressed in transfected cells; host or cells: HEK-293
T2 sequence (P31651 1-614): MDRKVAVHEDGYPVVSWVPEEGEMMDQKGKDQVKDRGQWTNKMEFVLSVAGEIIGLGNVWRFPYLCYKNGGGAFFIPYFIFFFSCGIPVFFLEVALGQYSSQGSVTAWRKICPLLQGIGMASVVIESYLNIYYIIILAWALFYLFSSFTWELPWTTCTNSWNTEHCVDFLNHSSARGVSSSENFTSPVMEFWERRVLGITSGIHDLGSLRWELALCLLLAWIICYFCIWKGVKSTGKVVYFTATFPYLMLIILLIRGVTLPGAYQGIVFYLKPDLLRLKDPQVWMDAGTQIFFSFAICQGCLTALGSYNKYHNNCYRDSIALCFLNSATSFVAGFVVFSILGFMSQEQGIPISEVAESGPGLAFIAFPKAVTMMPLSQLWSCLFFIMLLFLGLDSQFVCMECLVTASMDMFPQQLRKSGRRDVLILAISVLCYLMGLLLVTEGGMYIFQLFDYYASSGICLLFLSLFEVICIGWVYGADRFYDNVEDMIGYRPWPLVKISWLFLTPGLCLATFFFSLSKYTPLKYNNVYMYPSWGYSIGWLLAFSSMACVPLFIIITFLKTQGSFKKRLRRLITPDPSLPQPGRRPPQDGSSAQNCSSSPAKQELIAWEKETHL

[3] = molecular target: T3, mGAT3 (Mus musculus, UniProt P31649); test: [3H]GABA uptake assay in HEK-293 cells stably expressing mGAT3; format: cell-based; details: [3H]GABA uptake; read-out: pIC50 ± SEM mGAT3 (converted)
T3 construct: expressed in transfected cells; host or cells: HEK-293
T3 sequence (P31649 1-602): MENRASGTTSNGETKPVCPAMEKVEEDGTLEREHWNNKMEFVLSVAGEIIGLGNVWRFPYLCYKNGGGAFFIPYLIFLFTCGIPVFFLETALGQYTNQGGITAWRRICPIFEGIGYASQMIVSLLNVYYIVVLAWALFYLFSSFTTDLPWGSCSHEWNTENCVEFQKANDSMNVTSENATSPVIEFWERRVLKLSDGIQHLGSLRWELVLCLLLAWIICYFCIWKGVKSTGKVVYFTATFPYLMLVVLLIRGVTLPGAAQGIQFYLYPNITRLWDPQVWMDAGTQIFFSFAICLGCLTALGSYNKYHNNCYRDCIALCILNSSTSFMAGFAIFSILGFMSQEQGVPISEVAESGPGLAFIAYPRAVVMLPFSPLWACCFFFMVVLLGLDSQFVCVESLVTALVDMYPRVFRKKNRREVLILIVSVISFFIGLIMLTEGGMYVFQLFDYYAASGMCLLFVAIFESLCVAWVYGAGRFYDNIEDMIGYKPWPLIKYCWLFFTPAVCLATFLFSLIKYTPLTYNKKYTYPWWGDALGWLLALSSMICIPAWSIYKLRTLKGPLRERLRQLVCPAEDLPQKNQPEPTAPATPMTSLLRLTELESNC

[4] = molecular target: T4, mGAT4 (Mus musculus, UniProt P31650); test: [3H]GABA uptake assay in HEK-293 cells stably expressing mGAT4; format: cell-based; details: for IC50: [3H]GABA uptake, read-out: pIC50 ± SEM mGAT4 (converted); for remaining [3H]GABA uptake mGAT4: in the presence of 100 μM inhibitor
T4 construct: expressed in transfected cells; host or cells: HEK-293
T4 sequence (P31650 1-627): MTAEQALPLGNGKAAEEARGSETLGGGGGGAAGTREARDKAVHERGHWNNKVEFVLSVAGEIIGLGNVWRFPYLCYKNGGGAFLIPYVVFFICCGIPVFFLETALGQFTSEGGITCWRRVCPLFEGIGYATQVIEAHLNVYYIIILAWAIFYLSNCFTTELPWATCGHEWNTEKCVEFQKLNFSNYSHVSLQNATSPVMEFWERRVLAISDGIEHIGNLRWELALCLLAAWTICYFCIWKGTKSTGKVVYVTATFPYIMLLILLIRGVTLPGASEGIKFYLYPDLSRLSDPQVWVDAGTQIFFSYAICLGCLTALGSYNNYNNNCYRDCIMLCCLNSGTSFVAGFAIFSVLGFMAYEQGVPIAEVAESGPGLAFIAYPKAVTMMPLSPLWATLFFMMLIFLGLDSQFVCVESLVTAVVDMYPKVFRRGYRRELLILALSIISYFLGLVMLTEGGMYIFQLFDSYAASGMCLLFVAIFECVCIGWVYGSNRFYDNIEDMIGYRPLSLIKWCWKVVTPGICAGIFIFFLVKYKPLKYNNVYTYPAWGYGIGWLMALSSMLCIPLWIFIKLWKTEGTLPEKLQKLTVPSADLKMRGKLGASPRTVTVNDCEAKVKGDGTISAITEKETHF

[5] = molecular target: T1, mGAT1; test: competitive MS binding assay with NO711 as unlabeled marker (LC-ESI-MS/MS); details: in the presence of 100 μM inhibitor
Procedure: Specific binding affinity toward mGAT1 was determined via a competitive mass spectrometry (MS) binding assay quantified by liquid chromatography–electrospray ionization tandem mass spectrometry (LC–ESI-MS/MS) with NO711 as an unlabeled marker.[50]
MS binding assays for mGAT1 were performed as described earlier.[50] Inhibition of mGAT1 binding by the synthesized compounds was determined in MS binding assays at a screening concentration of 100 μM and analyzed by LC–ESI-MS/MS.

SMILES | IC50 [1] [µM] | IC50 [2] [µM] | IC50 [3] [µM] | IC50 [4] [µM] | remaining NO711 binding mGAT1 [5] | remaining [3H]GABA uptake mGAT1 [1] | remaining [3H]GABA uptake mGAT2 [2] | remaining [3H]GABA uptake mGAT4 [4]
Cc1ccsc1C(=C1CCN([C@H](C[C@@H](C)O)C(=O)NCc2ccccc2)CC1)c1sccc1C (relative stereo) [2RS,4RS-37a, N-Benzyl-2-{4-[bis(3-methylthiophen-2-yl)methylidene]piperidin-1-yl}-4-hydroxypentanamide] | 26.3 | 24.5 | 41.7 | 72.4 | 100 μM: 74% | – | – | –
Cc1ccsc1C(=C1CCN(C(CC(C)O)C(=O)NCc2ccccc2Cl)CC1)c1sccc1C (centres unmarked) [2RS,4RS-37b, 2-{4-[Bis(3-methylthiophen-2-yl)methylidene]piperidin-1-yl}-N-[(2-chlorophenyl)methyl]-4-hydroxypentanamide] | – | – | 93.3 | 61.7 | 100 μM: 94% | 100 μM: 52% | 100 μM: 58% | –
CC(O)CC(C(=O)NCc1ccc(F)cc1)N(C)CCC=C1c2ccccc2CCc2ccccc21 (centres unmarked) [2RS,4RS-39a, 2-((3-(10,11-Dihydro-5H-dibenzo[a,d][7]annulen-5-ylidene)propyl)(methyl)amino)-N-(4-fluorobenzyl)-4-hydroxypentanamide] | – | 12.6 | 14.8 | 25.1 | 100 μM: 110% | 100 μM: 51% | – | –
CC(O)CC(C(=O)NCc1ccccc1)N1CCC(=C2c3ccccc3-c3ccccc32)CC1 (centres unmarked) [2RS,4RS-41a, N-Benzyl-2-[4-(9H-fluoren-9-ylidene)piperidin-1-yl]-4-hydroxypentanamide] | – | 74.1 | 64.6 | – | 100 μM: 92% | 100 μM: 49% | – | 52%
CC(O)CC(C(=O)NCc1ccccc1)N1CCC(=C2c3ccccc3CCc3ccccc32)CC1 (centres unmarked) [2RS,4RS-43a, N-Benzyl-2-(4-(10,11-dihydro-5H-dibenzo[a,d][7]annulen-5-ylidene)piperidin-1-yl)-4-hydroxypentanamide] | 17 | 56.2 | 21.4 | 26.3 | 100 μM: 77% | – | – | –
CC(O)CC(C(=O)NCc1ccccc1)N1CCC(=C2c3ccccc3-c3ccccc32)CC1 (centres unmarked) [2RS,4SR-41a, N-Benzyl-2-[4-(9H-fluoren-9-ylidene)piperidin-1-yl]-4-hydroxypentanamide] | 85.1 | 89.1 | 55 | 72.4 | 100 μM: 89% | – | – | –
Cc1ccc(CNC(=O)C(CO)N(C)CCC=C2c3ccccc3CCc3ccccc32)cc1 (centres unmarked) [Compound 56e, 2-((3-(10,11-Dihydro-5H-dibenzo[a,d][7]annulen-5-ylidene)propyl)(methyl)amino)-3-hydroxy-N-(4-methylbenzyl)propanamide] | 18.6 | 28.8 | 20.4 | 11.2 | – | – | – | –

Results, then the compound that gave them:

IC50 [1] [µM] | IC50 [2] [µM] | IC50 [3] [µM] | IC50 [4] [µM] | remaining NO711 binding mGAT1 [5] | remaining [3H]GABA uptake mGAT1 [1] | remaining [3H]GABA uptake mGAT2 [2] | remaining [3H]GABA uptake mGAT4 [4] | SMILES
17.8 | 15.8 | 11.5 | 19.5 | 100 μM: 76% | – | – | – | Cc1ccsc1C(=C1CCN([C@H](C[C@@H](C)O)C(=O)NCc2ccc(F)cc2)CC1)c1sccc1C (relative stereo) [2RS,4RS-37c, 2-{4-[Bis(3-methylthiophen-2-yl)methylidene]piperidin-1-yl}-N-[(4-fluorophenyl)methyl]-4-hydroxypentanamide]
– | – | 24 | 9.12 | 100 μM: 84% | 100 μM: 56% | 100 μM: 73% | – | C[C@@H](O)C[C@H](C(=O)NCc1ccc(Cl)cc1)N(C)CCC=C1c2ccccc2CCc2ccccc21 (relative stereo) [2RS,4RS-39b, N-(4-Chlorobenzyl)-2-((3-(10,11-dihydro-5H-dibenzo[a,d][7]annulen-5-ylidene)propyl)(methyl)amino)-4-hydroxypentanamide]
29.5 | – | 61.7 | 27.5 | 100 μM: 78% | – | 100 μM: 60% | – | Cc1ccsc1C(=C1CCN([C@H](C[C@H](C)O)C(=O)NCc2ccccc2)CC1)c1sccc1C (relative stereo) [2RS,4SR-37a, N-Benzyl-2-{4-[bis(3-methylthiophen-2-yl)methylidene]piperidin-1-yl}-4-hydroxypentanamide]
– | – | 10.2 | 9.12 | 100 μM: 87% | 100 μM: 51% | 100 μM: 73% | – | C[C@H](O)C[C@H](C(=O)NCc1ccc(Cl)cc1)N(C)CCC=C1c2ccccc2CCc2ccccc21 (relative stereo) [2RS,4SR-39b, N-(4-Chlorobenzyl)-2-((3-(10,11-dihydro-5H-dibenzo[a,d][7]annulen-5-ylidene)propyl)(methyl)amino)-4-hydroxypentanamide]
– | 8.13 | 7.94 | 6.92 | 100 μM: 73% | 100 μM: 51% | – | – | Cc1ccc(CNC(=O)[C@@H](C[C@H](C)O)N(C)CCC=C2c3ccccc3CCc3ccccc32)cc1 (relative stereo) [2RS,4SR-39c, 2-((3-(10,11-Dihydro-5H-dibenzo[a,d][7]annulen-5-ylidene)propyl)(methyl)amino)-4-hydroxy-N-(4-methylbenzyl)pentanamide]
70.8 | – | 38 | 47.9 | 100 μM: 86% | – | 100 μM: 59% | – | CC(O)CC(C(=O)NCc1ccc(F)cc1)N1CCC(=C2c3ccccc3CCc3ccccc32)CC1 (centres unmarked) [2RS,4RS-43b, 2-(4-(10,11-Dihydro-5H-dibenzo[a,d][7]annulen-5-ylidene)piperidin-1-yl)-N-(4-fluorobenzyl)-4-hydroxypentanamide]
43.7 ± 0.801 | 45.7 | 20 | 28.2 | 100 μM: 100% | – | – | – | CC(O)CC(C(=O)NCc1ccccc1)N(C)CCON=C(c1ccccc1)c1ccccc1 (centres unmarked) [2RS,4RS-45, N-Benzyl-2-[(2-{[(diphenylmethylidene)amino]oxy}ethyl)(methyl)amino]-4-hydroxypentanamide]
– | – | 72.4 | – | 100 μM: 108% | 100 μM: 50% | 100 μM: 69% | 100 μM: 56% | Cc1ccsc1C(=C1CCN(C(CC(C)O)C(=O)NCc2ccccc2Cl)CC1)c1sccc1C (centres unmarked) [2RS,4SR-37b, 2-{4-[Bis(3-methylthiophen-2-yl)methylidene]piperidin-1-yl}-N-[(2-chlorophenyl)methyl]-4-hydroxypentanamide]
